Measurements reported in patent publication US11572366B2, “Heterocyclic compounds as immunomodulators” (Incyte Corporation, priority 2015, dated 2023).

Molecular target: PD-1/PD-L1 protein/protein interaction (Homo sapiens (Human), UniProt Q9NZQ7)
Assay: PD-1/PD-L1 Homogeneous Time-Resolved Fluorescence (HTRF) binding assay
Settings: recombinant human PD-L1 (19-238) His-tag 10 nM, human PD-1 (25-167) Fc tag 3 nM, 25° C., PBS pH 7.4
Procedure: Example A. PD-1/PD-L Homogeneous Time-Resolved Fluorescence (HTRF) Binding Assay
The assays were conducted in a standard black 384-well polystyrene plate with a final volume of 20 μL. Inhibitors were first serially diluted in DMSO and then added to the plate wells before the addition of other reaction components. The final concentration of DMSO in the assay was 1%. The assays were carried out at 25° C. in the PBS buffer (pH 7.4) with 0.05% Tween-20 and 0.1% BSA. Recombinant human PD-L1 protein (19-238) with a His-tag at the C-terminus was purchased from AcroBiosystems (PD1-H5229). Recombinant human PD-1 protein (25-167) with Fc tag at the C-terminus was also purchased from AcroBiosystems (PD1-H5257). PD-L1 and PD-1 proteins were diluted in the assay buffer and 10 μL was added to the plate well. Plates were centrifuged and proteins were preincubated with inhibitors for 40 minutes. The incubation was followed by the addition of 10 μL of HTRF detection buffer supplemented with Europium cryptate-labeled anti-human IgG (PerkinElmer-AD0212) specific for Fe and anti-His antibody conjugated to SureLight®-Allophycocyanin (APC, PerkinElmer-AD0059H). After centrifugation, the plate was incubated at 25° C. for 60 min. before reading on a PHERAstar FS plate reader (665 nm/620 nm ratio). Final concentrations in the assay were—3 nM PD1, 10 nM PD-L1, 1 nM europium anti-human IgG and 20 nM anti-His-Allophycocyanin.IC50 determination was performed by fitting the curve of percent control activity versus the log of the inhibitor concentration using the GraphPad Prism 5.0 software.

PD-1/PD-L1 protein/protein interaction, sequence (Q9NZQ7 19-238): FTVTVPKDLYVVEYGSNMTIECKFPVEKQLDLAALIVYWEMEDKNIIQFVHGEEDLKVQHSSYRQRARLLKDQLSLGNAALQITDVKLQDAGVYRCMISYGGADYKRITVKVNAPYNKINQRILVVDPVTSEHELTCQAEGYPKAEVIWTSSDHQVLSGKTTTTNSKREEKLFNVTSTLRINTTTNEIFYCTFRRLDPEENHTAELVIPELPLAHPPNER

IC50 [nM] | Structure (SMILES)
10 to 100 | Cc1c(-c2ccccc2)cccc1-c1cc2ccc(CNCCO)nc2o1 [Example 1, 2-({[2-(2-methylbiphenyl-3-yl)furo[2,3-b]pyridin-6-yl]methyl}amino)ethanol]
100 to 1000 | Cc1c(-c2ccccc2)cccc1-c1cc2ccc(CN3CCCC[C@H]3C(=O)O)nc2o1 [Example 2, (2S)-1-{[2-(2-methylbiphenyl-3-yl)furo[2,3-b]pyridin-6-yl]methyl}piperidine-2-carboxylic Acid]
10 to 100 | Cc1c(-c2ccccc2)cccc1-c1cc2nc(CNCCO)cc(C)c2o1 [Example 3, 2-({[7-methyl-2-(2-methylbiphenyl-3-yl)furo[3,2-b]pyridin-5-yl]methyl}amino)ethanol]
10 to 100 | Cc1c(-c2ccccc2)cccc1-c1cc2nc(CN3CCCC[C@H]3C(=O)O)cc(C)c2o1 [Example 4, (2S)-1-{[7-methyl-2-(2-methylbiphenyl-3-yl)furo[3,2-b]pyridin-5-yl]methyl}piperidine-2-carboxylic Acid]
10 to 100 | Cc1c(-c2ccccc2)cccc1-c1cc2cc(CNCCO)nc(C)c2o1 [Example 5, 2-({[7-methyl-2-(2-methylbiphenyl-3-yl)furo[2,3-c]pyridin-5-yl]methyl}amino)ethanol]
10 to 100 | Cc1c(-c2ccccc2)cccc1-c1cc2cc(CN3CCCC[C@H]3C(=O)O)nc(C)c2o1 [Example 6, (2S)-1-{[7-methyl-2-(2-methylbiphenyl-3-yl)furo[2,3-c]pyridin-5-yl]methyl}piperidine-2-carboxylic Acid]
10 to 100 | Cc1c(-c2ccccc2)cccc1-c1nc2cc(CN3CCCC[C@H]3C(=O)O)ccc2o1 [Example 7, (2S)-1-{[2-(2-methylbiphenyl-3-yl)-1,3-benzoxazol-5-yl]methyl}piperidine-2-carboxylic Acid]
≤ 10 | Cc1c(-c2ccccc2)cccc1-c1nc2cc(CNCCO)ccc2o1 [Example 8, 2-({[2-(2-methylbiphenyl-3-yl)-1,3-benzoxazol-5-yl]methyl}amino)ethanol]
100 to 1000 | Cc1c(-c2ccccc2)cccc1-c1cc2cc(CN3CCCC[C@H]3C(=O)O)cnc2o1 [Example 9, (2S)-1-{[2-(2-methylbiphenyl-3-yl)furo[2,3-b]pyridin-5-yl]methyl}piperidine-2-carboxylic Acid]
10 to 100 | Cc1c(-c2ccccc2)cccc1-c1cc2cc(CNCCO)cnc2o1 [Example 10, 2-({[2-(2-methylbiphenyl-3-yl)furo[2,3-b]pyridin-5-yl]methyl}amino)ethanol]
≤ 10 | Cc1c(-c2ccccc2)cccc1-c1nc2cc(CN3CCCC[C@H]3C(=O)O)cc(C)c2o1 [Example 11, (2S)-1-{[7-methyl-2-(2-methylbiphenyl-3-yl)-1,3-benzoxazol-5-yl]methyl}piperidine-2-carboxylic Acid]
≤ 10 | Cc1c(-c2ccccc2)cccc1-c1nc2cc(CNCCO)cc(C)c2o1 [Example 12, 2-({[7-methyl-2-(2-methylbiphenyl-3-yl)-1,3-benzoxazol-5-yl]methyl}amino)ethanol]
10 to 100 | Cc1cc(CN2CCCC[C@H]2C(=O)O)cc2nc(-c3cccc(-c4ccccc4)c3C#N)oc12 [Example 13, (2S)-1-{[2-(2-cyanobiphenyl-3-yl)-7-methyl-1,3-benzoxazol-5-yl]methyl}piperidine-2-carboxylic Acid]
≤ 10 | Cc1cc(CNCCO)cc2nc(-c3cccc(-c4ccccc4)c3C#N)oc12 [Example 14, 3-(5-{[(2-hydroxyethyl)amino]methyl}-7-methyl-1,3-benzoxazol-2-yl)biphenyl-2-carbonitrile]
10 to 100 | Cc1c(-c2ccc3c(c2)OCCO3)cccc1-c1nc2cc(CN3CCCC[C@H]3C(=O)O)cc(C)c2o1 [Example 15, (2S)-1-({2-[3-(2,3-dihydro-1,4-benzodioxin-6-yl)-2-methylphenyl]-7-methyl-1,3-benzoxazol-5-yl}methyl)piperidine-2-carboxylic Acid]
≤ 10 | Cc1c(-c2ccc3c(c2)OCCO3)cccc1-c1nc2cc(CNCCO)cc(C)c2o1 [Example 16, 2-[({2-[3-(2,3-dihydro-1,4-benzodioxin-6-yl)-2-methylphenyl]-7-methyl-1,3-benzoxazol-5-yl}methyl)amino]ethanol]
10 to 100 | Cc1cc(CN2CCCC[C@H]2C(=O)O)cc2nc(-c3cccc(-c4ccc5c(c4)OCCO5)c3C#N)oc12 [Example 17, (2S)-1-({2-[2-cyano-3-(2,3-dihydro-1,4-benzodioxin-6-yl)phenyl]-7-methyl-1,3-benzoxazol-5-yl}methyl)piperidine-2-carboxylic Acid]

IC50 [nM] | Structure (SMILES)
≤ 10 | Cc1cc(CNCCO)cc2nc(-c3cccc(-c4ccc5c(c4)OCCO5)c3C#N)oc12 [Example 18, 2-(2,3-dihydro-1,4-benzodioxin-6-yl)-6-(5-{[(2-hydroxyethyl)amino]methyl}-7-methyl-1,3-benzoxazol-2-yl)benzonitrile]
100 to 1000 | Cc1c(-c2ccccc2)cccc1-c1nc2cc(CN3CCCC[C@H]3C(=O)O)ccc2s1 [Example 19, (2S)-1-{[2-(2-methylbiphenyl-3-yl)-1,3-benzothiazol-5-yl]methyl}piperidine-2-carboxylic Acid]
100 to 1000 | Cc1c(-c2ccccc2)cccc1-c1cc2nc(CN3CCCC[C@H]3C(=O)O)ccc2o1 [Example 20, (2S)-1-{[2-(2-methylbiphenyl-3-yl)furo[3,2-b]pyridin-5-yl]methyl}piperidine-2-carboxylic Acid]
10 to 100 | Cc1c(-c2ccccc2)cccc1-c1cc2nc(CNCCO)ccc2o1 [Example 21, 2-({[2-(2-methylbiphenyl-3-yl)furo[3,2-b]pyridin-5-yl]methyl}amino)ethanol]
10 to 100 | Cc1c(-c2ccccc2)cccc1-c1nc2c(C)cc(CN3CCCC[C@H]3C(=O)O)cc2s1 [Example 22, (2S)-1-{[4-methyl-2-(2-methylbiphenyl-3-yl)-1,3-benzothiazol-6-yl]methyl}piperidine-2-carboxylic Acid]
10 to 100 | Cc1c(-c2ccccc2)cccc1-c1nc2c(C)cc(CNCCO)cc2s1 [Example 23, 2-({[4-methyl-2-(2-methylbiphenyl-3-yl)-1,3-benzothiazol-6-yl]methyl}amino)ethanol]
10 to 100 | Cc1c(-c2ccccc2)cccc1-c1cc2nc(CNCCO)cnc2o1 [Example 24, 2-({[6-(2-methylbiphenyl-3-yl)furo[2,3-b]pyrazin-2-yl]methyl}amino)ethanol]
100 to 1000 | Cc1c(-c2ccccc2)cccc1-c1cc2nc(CN3CCCC[C@H]3C(=O)O)cnc2o1 [Example 25, (2S)-1-{[6-(2-methylbiphenyl-3-yl)furo[2,3-b]pyrazin-2-yl]methyl}piperidine-2-carboxylic Acid]
≤ 10 | Cc1c(-c2ccccc2)cccc1-c1nc2cc(CN3CCCC[C@H]3C(=O)O)c(OCC#N)cc2o1 [Example 26, (2S)-1-{[6-(cyanomethoxy)-2-(2-methylbiphenyl-3-yl)-1,3-benzoxazol-5-yl]methyl}piperidine-2-carboxylic Acid]
≤ 10 | Cc1c(-c2ccccc2)cccc1-c1nc2cc(CNCCO)c(OCC#N)cc2o1 [Example 27, {[5-{[(2-hydroxyethyl)amino]methyl}-2-(2-methylbiphenyl-3-yl)-1,3-benzoxazol-6-yl]oxy}acetonitrile]
≤ 10 | Cc1c(-c2ccccc2)cccc1-c1nc2cc(CN3CCCC[C@H]3C(=O)O)c(OCCCC#N)cc2o1 [Example 28, (2S)-1-{[6-(3-cyanopropoxy)-2-(2-methylbiphenyl-3-yl)-1,3-benzoxazol-5-yl]methyl}piperidine-2-carboxylic Acid]
10 to 100 | Cc1c(-c2ccccc2)cccc1-c1nc2cc(CNCCO)c(OCc3cccc(C#N)c3)cc2o1 [Example 29, 3-({[5-{[(2-hydroxyethyl)amino]methyl}-2-(2-methylbiphenyl-3-yl)-1,3-benzoxazol-6-yl]oxy}methyl)benzonitrile]
≤ 10 | Cc1c(-c2ccccc2)cccc1-c1nc2cc(CNCCO)c(OCc3ccccn3)cc2o1 [Example 30, 2-({[2-(2-methylbiphenyl-3-yl)-6-(pyridin-2-ylmethoxy)-1,3-benzoxazol-5-yl]methyl}amino)ethanol]
≤ 10 | COc1cc2oc(-c3cccc(-c4ccccc4)c3C)nc2cc1CNCCO [Example 31, 2-({[6-methoxy-2-(2-methylbiphenyl-3-yl)-1,3-benzoxazol-5-yl]methyl}amino)ethanol]
≤ 10 | Cc1c(-c2ccccc2)cccc1-c1nc2cc(CNCCO)c(OCCN3CCOCC3)cc2o1 [Example 32, 2-({[2-(2-methylbiphenyl-3-yl)-6-(2-morpholin-4-ylethoxy)-1,3-benzoxazol-5-yl]methyl}amino)ethanol]
10 to 100 | Cc1c(-c2ccccc2)cccc1-c1nc2cc(CNCCO)ncc2o1 [Example 33, 2-({[2-(2-methylbiphenyl-3-yl)[1,3]oxazolo[5,4-c]pyridin-6-yl]methyl}amino)ethanol]
10 to 100 | Cc1c(-c2ccccc2)cccc1-c1nc2cc(CNCCO)c(OCCCC#N)c(C)c2o1 [Example 34, 4-{[5-{[(2-hydroxyethyl)amino]methyl}-7-methyl-2-(2-methylbiphenyl-3-yl)-1,3-benzoxazol-6-yl]oxy}butanenitrile]
